Results: patent publication US7709645B2, “Pyrrolo-pyridine kinase modulators” (SGX Pharmaceuticals, Inc., priority 2004, dated 2010)

What follows are compounds tested against T1, Abl T315I kinase domain (unphosphorylated) (Mus musculus, UniProt P00520, T315I) (assay: Abl_T315I Bioassay (c-Abl PK/LDH coupled enzyme assay)). Settings: 10 μM ATP.
T1 construct: purified and unphosphorylated T315I Abl kinase domain; made in house; host or cells: E. coli BL21(DE3) strains
T1 sequence (P00520 242-493 T315I limits assumed): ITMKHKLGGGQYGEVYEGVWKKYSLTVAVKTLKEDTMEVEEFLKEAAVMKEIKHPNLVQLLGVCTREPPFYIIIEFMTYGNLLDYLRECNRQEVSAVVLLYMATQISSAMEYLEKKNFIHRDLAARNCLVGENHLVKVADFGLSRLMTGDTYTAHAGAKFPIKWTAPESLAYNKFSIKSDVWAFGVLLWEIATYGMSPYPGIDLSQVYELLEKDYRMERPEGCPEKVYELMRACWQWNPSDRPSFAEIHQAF
Assay type: biochemical
Source text: Although the first of these examples uses the kinase domain of a mutant form of Abl T315I (“Abl T315I KD”), the kinase assays may use various forms of mutant and wild type enzymes, including, for example, the entire protein, the kinase domain, or a portion thereof (e.g. Abl Y393F). The kinases used in the assays may also be of varying phosphorylation states. In the c-Abl example, a mutant kinase at a zero phosphorylation state was used.
In the c-Abl Pyruvate Kinase (PK)/Lactate Dehydrogenase (LDH) Coupled Assay the protein kinase dependant phosphorylation of a substrate peptide was coupled to the oxidation of NADH. The oxidation of NADH to NAD+ was detected by monitoring a decrease in absorbance at 340 nm.
Materials: Abl substrate peptide=EAIYAAPFAKKK (SEQ ID NO:1)-OH (Biopeptide, San Diego, Calif.); βNADH (Sigma Cat#N-8129, FW=709.4); 2M MgCl2; 1M HEPES buffer, pH 7.5; Phosphoenolpyruvate (PEP) (Sigma Cat#P-7002, FW=234); Lactate dehydrogenase (LDH) (Worthington Biochemical Cat#2756); Pyruvate Kinase (PK) (Sigma Cat#P-9136); ATP (Sigma Cat#A-3377, FW=551); Greiner 384-well UV star plate; and purified and unphosphorylated T315I Abl kinase domain.
Stock Solutions: 10 mM NADH (7.09 mg/ml in miliQH2O) made fresh daily; 10 mM Abl substrate peptide (13.4 mg/ml in miliQH2O) stored at −20° C.; 100 mM HEPES buffer, pH 7.5 (5 ml 1M stock+45 ml miliQH2O); 100 mM MgCl2 (5 ml 2M MgCl2+95 ml dH2O); 100 mM PEP (23.4 mg/ml in dH2O) stored at −20° C.; 10 mM ATP (5.51 mg/ml in dH2O) stored at −20° C. (diluted 50 μl into total of 10 ml miliQH2O daily=50 μM ATP working stock); 1000 U/ml PK (U/mg varies with lot) flash-frozen under liquid N2 and stored at −80° C.; and 1000 U/ml LDH (U/mg varies with lot) flash-frozen under liquid N2 and stored at −80° C.
Standard Assay Setup for 384-well format (50 μl reaction): 300 μM NADH; 10 mM MgCl2; 2 mM PEP; 45 U/ml PK; 60 U/ml LDH; 200 μM Abl substrate peptide; 2.5 μl test compound (in DMSO); 2 μg/ml Abl kinase domain; 10 μM ATP; 100 mM HEPES buffer. Positive controls contained DMSO with no test compound. Negative controls contained 5 μl of 0.5M EDTA (50 mM in the assay). The dephosphorylated form of the c-Abl T315I mutant was used in the biochemical screening assays. The kinase reaction was initiated at time t=0 by the addition of ATP.
Activity was measured by following the time-dependent loss of NADH by absorbance spectroscopy at 340 nm. The linear portion of the resulting progress curve was then analyzed by linear regression to get the activity in absorbance units/time, reported as the slope of that best fit line (moles/unit time can be calculated from using molar extinction coefficient for NADH at 340 nm, 6250M^−1 cm^−1).
Data was evaluated using the equation: Z′=1−[3*(σ++σ−)/|μ+−μ−|](Zhang, et al., 1999 J Biomol Screening 4(2) 67-73), where μ denotes the mean and σ the standard deviation. The subscript designates positive or negative controls. The Z′ score for a robust screening assay should be ≧0.50. The typical threshold=μ+−3*σ+. Any value that falls below the threshold was designated a “hit”.
Dose response was analyzed using the equation: y=min+{(max−min)/(1+10^[compound]−logIC50)}, where y is the observed initial slope, max=the slope in the absence of inhibitor, min=the slope at infinite inhibitor, and the IC50 is the [compound] that corresponds to ½ the total observed amplitude (Amplitude=max−min).
To measure modulation, activation, or inhibition of Abl KD, a test compound was added to the assay at a range of concentrations. Inhibitors may inhibit Abl KD activity at an IC50 in the micromolar range, the nanomolar range, or, for example, in the subnanomolar range.
An open-reading frame for c-Abl was amplified from a Mus musculus (mouse) cDNA library prepared from freshly harvested mouse liver using a commercially available kit (Invitrogen) by PCR using the following primers: […]
The c-Abl T315I KD (kinase domain) was purified as follows. […]

Row | SMILES | IC50 [nM]
1 | COc1ccccc1-c1c[nH]c2ncc(-c3ccc(CN(C)C)cc3)cc12 [AE8] | < 50
2 | COc1ccccc1-c1c[nH]c2ncc(-c3ccc4[nH]cc(CC(=O)O)c4c3)cc12 [AE10] | < 50
3 | O=C(c1cncc(-c2cnc3[nH]cc(-c4ccc5cc[nH]c5c4)c3c2)c1)N1CCOCC1 [AE14] | < 50
4 | COc1ccccc1-c1c[nH]c2ncc(-c3ccc(O)c(CN4CCCN(C)CC4)c3)cc12 [AE41] | < 50
5 | CNC(=O)c1cncc(-c2cnc3[nH]cc(-c4ccccc4OC)c3c2)c1 [AE1] | < 50
6 | COc1ccccc1-c1c[nH]c2ncc(-c3cccc(C(=N)N4CCCCC4)c3)cc12 [AE42] | < 50
7 | COc1ccccc1-c1c[nH]c2ncc(-c3cccc(S(C)(=O)=O)c3)cc12 [AE13] | < 50
8 | N#Cc1cc(-c2cnc3[nH]cc(-c4ccc5[nH]ccc5c4)c3c2)ccc1O [AE20] | < 50
9 | COc1ccccc1-c1c[nH]c2ncc(-c3ccc[nH]3)cc12 [AE67] | < 50
10 | COc1cc(-c2cnc3[nH]cc(-c4ccccc4OC)c3c2)ccc1O [AE64] | < 50
11 | Oc1cccc(-c2cnc3[nH]cc(-c4ccc(O)c(F)c4)c3c2)c1 [AE48] | < 50
12 | c1cc2cc(-c3c[nH]c4ncc(-c5ccc6[nH]cnc6c5)cc34)ccc2[nH]1 [AE22] | < 50
13 | COc1ccccc1-c1c[nH]c2ncc(-c3ccc(S(N)(=O)=O)s3)cc12 [AE11] | < 50
14 | COc1cc(-c2cnc3[nH]cc(-c4ccccc4OC)c3c2)ccc1OCCN1CCCC1 [AE65] | < 50
15 | COc1ccccc1-c1c[nH]c2ncc(-c3ccc(S(N)(=O)=O)cc3)cc12 [AE21] | < 50
16 | Oc1cccc(-c2cnc3[nH]cc(-c4ccn[nH]4)c3c2)c1 [AE49] | < 50
17 | COc1ccccc1-c1c[nH]c2ncc(-c3cc[nH]c(=O)c3)cc12 [AE9] | < 50
18 | COCCOc1ccc(-c2cnc3[nH]cc(-c4ccccc4OC)c3c2)cc1OCCOC [AE68] | < 50
19 | Nc1nc(-c2c[nH]c3ncc(-c4ccc5[nH]ccc5c4)cc23)cs1 [AE55] | < 50
20 | COc1cc(-c2cnc3[nH]cc(-c4ccc(O)cc4)c3c2)ccc1O [AE58] | < 50
21 | CNC(=O)c1cc(-c2cnc3[nH]cc(-c4ccccc4OC)c3c2)cs1 [AE2] | < 50
22 | COc1ccccc1-c1c[nH]c2ncc(-c3csc(C(=O)N(C)C)c3)cc12 [AE3] | < 50
